According to PubChem BioAssay AID1626 (SRMLSC, 2009):
pIC50: −log10 of the molar value.

Tested on: M. tuberculosis H37Rv growth inhibition
Experiment: M. tuberculosis H37Rv growth inhibitors, H37Rv strain (AID 1626)
Conditions: for IC90: measured here: IC90 against H37Rv; for CC50: measured here: Vero cell cytotoxicity

Row | Structure (SMILES) | pIC50 | IC90 | CC50
1 | Cc1ccc(C(=O)/C=C/C(=O)c2ccc(C)cc2)cc1 | 5.26 | 9.24 µM | > 40 µM
2 | Cc1ccc(C)c(N=Nc2nc3ccccc3n2C)c1 | 5.88 | 1.7 µM | > 40 µM
3 | CCOC(=O)CSc1nnc(-c2ccc(Cl)cc2Cl)o1 | > 6.41 | 9.47 µM | 
4 | CSc1ccc(/C=C/C(=O)c2ccc(NC(=O)Cc3ccccc3)cc2)cc1 | 5.33 | > 100 µM | > 40 µM
5 | CCc1nnc(NC(=O)c2cccc(C(=O)Nc3nnc(CC)s3)n2)s1 |  | 1.09 µM | 3.62 µM
6 | O=C(c1ccc2c(c1)[nH]c(=S)n1c3ccccc3nc21)N1CCN(c2cccc(Cl)c2)CC1 | 5.36 | 32.3 µM | 26.5 µM
7 | CCCNC(=O)NC(=O)COc1ccc(-c2ccc(C#N)cc2)cc1 | 6.12 | > 100 µM | 
8 | CC(=O)Nc1nc2ccccc2n1Cc1ccccc1Cl | > 6.71 | > 100 µM | 16.3 µM
9 | O=C(Nc1nnc(C2=COCCO2)o1)c1ccc(Cc2ccccc2)cc1 | 5.35 | 10.6 µM | > 40 µM
10 | CCOc1ccc(NC2C=CS(=O)(=O)C2)cc1 (configuration not stated) |  | > 100 µM | 
11 | CCOc1ccc(N2CCc3c(C)nc(SC)nc32)cc1 | > 6.71 | 40.3 µM | 27.1 µM
12 | COC(=O)CN1C(c2cccc(Cl)c2)=Nc2ccc(Cl)cc2C1c1ccccc1 (configuration not stated) | 4.92 | 13.6 µM | 
13 | Cc1ccccc1OCc1nc(-c2ccc(NC(=O)c3cccs3)cc2)no1 | 5.35 | 46.6 µM | 
14 | O=C(CNC(=O)c1ccc(-c2ccccc2)cc1)OCc1c(F)cccc1Cl | 5.13 | > 100 µM | 
15 | CCOc1ccc2nc(NC(=O)CSc3nc(-c4ccccc4)c(C#N)c(=O)[nH]3)sc2c1 |  | > 100 µM | 
16 | CCN(CC)c1ccc(/C=C(/C#N)c2nc3ccccc3[nH]2)c(OC(C)C)c1 | 6.31 | 0.936 µM | > 40 µM
17 | CCc1nc(NCc2ccc3c(c2)OCO3)c2oc3ccccc3c2n1 | 5.05 | 17 µM | > 40 µM
18 | CCCNC(=O)c1nnsc1S(=O)c1ccc(Cl)cc1 (configuration not stated) | 5.06 | 10.5 µM | 8.53 µM
19 | O=C(CSc1nc(-c2ccccc2Cl)ns1)Nc1ccc2c(c1)OCO2 |  |  | > 40 µM
20 | O=C1CC(=C(c2ccccc2)c2ccccc2)C(=O)N1CCCCN1CCN(c2ccccc2)CC1 | 4.75 | 22.7 µM | > 40 µM
21 | CCOC(=O)c1ccc(NC(=O)CCc2nc(-c3ccccc3Cl)no2)cc1 | 6.29 | 57.8 µM | > 40 µM

Row | Structure (SMILES) | pIC50 | IC90 | CC50
22 | CCOC(=O)c1ccc(Nc2cc3ccccc3c(=O)[nH]2)cc1 | 4.87 | > 100 µM | 
23 | O=C(CSc1nc(-c2ccccc2Cl)ns1)c1ccc(Cl)cc1 | 5.06 | > 100 µM | 
24 | CN(C)c1ccc(/C=C/C=C2/C(=O)NC(=O)N(c3ccccc3)C2=O)cc1 | 5.60 | 4.66 µM | > 40 µM
25 | Nc1nc(F)nc2c1ncn2[C@@H]1O[C@H](CO)[C@@H](O)[C@H]1O | 5.58 | 3.95 µM | 0.218 µM
26 | Cc1ccc2nc(SCC(=O)Nc3ccc4c(c3)CCC4)[nH]c2c1 |  | > 100 µM | 
27 | O=C(Nc1ccc(OC(F)(F)F)cc1)N1CCN(c2ccnc3cc(Cl)ccc23)CC1 | 5.51 | 3.51 µM | 8.59 µM
28 | OC(CN1CCN(Cc2ccccc2)CC1)Cn1c2ccccc2c2ccccc21 (configuration not stated) | 4.78 | 22.9 µM | > 40 µM
29 | CCC(=O)c1coc2ccc(O)cc12 | 4.96 | > 100 µM | 
30 | CC(=O)Nc1sc2c(c1CN1CCN(c3ccc(F)cc3)CC1)CCCC2 | 4.88 | > 100 µM | > 40 µM
31 | O=C(CCCSc1ccccc1)Nc1nc(-c2ccccn2)cs1 | 6.62 | 5.04 µM | > 40 µM
32 | O=C(Nc1nc(NC(=O)c2ccco2)n(-c2ccccc2)n1)c1ccccc1 | 5.58 | 6.79 µM | 8.86 µM
33 | Clc1ccc(-n2nnnc2Sc2ncnc3sccc23)cc1 | 4.20 | > 100 µM | 10.5 µM
34 | O=C(OCC(=O)N1CCCCC1)c1cc2ccccc2cc1O | 5.79 | 10.6 µM | 
35 | O=C(NCc1cccnc1)/C(=C/c1ccc(-c2ccc(Cl)cc2)o1)S(=O)(=O)c1ccccc1 | 5.41 | 29.7 µM | 24 µM
36 | c1ccc(-c2nnc(SCc3nnc(-c4cccs4)o3)o2)cc1 | 5.20 | 11.6 µM | 
37 | Cc1cc(C)c(-c2csc(NC(=O)/C=C/c3cccs3)n2)c(C)c1 | 5.33 | 8.18 µM | > 40 µM
38 | CC1=CC(C)(C)Nc2ccc(OC(=O)c3ccco3)cc21 | 4.26 | > 100 µM | > 40 µM
39 | O=C(Nc1ccc(Oc2ccccc2)cc1)C1CCCO1 (configuration not stated) | 4.47 | > 100 µM | 
40 | COc1ccc(C(=O)OCCNC(=O)c2c(Cl)nc3ccccn23)cc1 | 5.29 | 15.8 µM | 
41 | Cc1ccc(-n2c(-c3ccc(Br)cc3)c[n+]3c2CCc2ccc4cccnc4c2-3)cc1 | 6.12 | 1.07 µM | 5.51 µM
42 | COc1cccc2c1C(=O)c1c(O)c3c(c(O)c1C2=O)C[C@@](O)(C(=O)CO)C[C@@H]3O[C@H]1C[C@H](N)[C@H](O)[C@H](C)O1 | 4.89 | > 100 µM | 7.25 µM

Row | Structure (SMILES) | pIC50 | IC90 | CC50
43 | COc1cc(CN2CCCC(C(=O)c3ccccc3SC)C2)cc(OC)c1 (configuration not stated) | 4.64 | 25.9 µM | > 40 µM
44 | COc1ccc(N/C=C/C(=O)c2ccc(Cl)cc2)cc1 |  |  | > 40 µM
45 | OC(COCC(F)(F)C(F)(F)C(F)(F)C(F)F)Cn1c2ccc(Cl)cc2c2cc(Cl)ccc21 (configuration not stated) | 5.15 | 9.92 µM | 13.3 µM
46 | CC(=O)OCCCN1c2ccccc2Nc2nnc(-c3ccccc3)cc21 |  | > 100 µM | > 40 µM
47 | CC(=O)OCCNc1cc(SCc2ccco2)c2nonc2c1[N+](=O)[O-] | 6.18 | 1.66 µM | 
48 | O=c1[nH]c2ccccc2n1CCCN1CCN(C(c2ccccc2)c2ccccc2)CC1 | 4.77 | 25.3 µM | > 40 µM
49 | O=C(NCc1ccc(F)cc1)C(=O)Nc1nc(C23CC4CC(CC(C4)C2)C3)cs1 |  |  | 21.4 µM
50 | COC(=O)c1cc(=O)n(-c2ccccc2)c(=Nc2ccccc2)s1 | 5.29 | 17.7 µM | 27.6 µM
51 | CCC(=O)c1ccc(OCC(=O)Nc2ccc3nc(C)sc3c2)cc1 | 5.20 | > 100 µM | 
52 | COCCCN=C1NN=C(c2cc(C)n(Cc3ccccc3Cl)c2C)CS1 | 4.95 | 12.1 µM | 16.3 µM
53 | COC(=O)CC(=O)N1CCN(c2ccc(Cl)c(Cl)c2)CC1 | 4.92 | 25.2 µM | 
54 | CCOc1ccc(NC(=O)CCn2cccc2)cc1 |  | > 100 µM | 
55 | c1ccc(CNc2nc(CN3CCOCC3)nc3scc(-c4ccccc4)c23)cc1 | 4.89 | 21.9 µM | 
56 | CCCCCCCn1c(NC(=O)CC)nc2ccccc21 | > 6.71 | 1.58 µM | 29.2 µM
57 | COc1ccc(-c2noc(CCC(=O)Nc3ccc(C)c(C)c3)n2)cc1 | 4.65 | > 100 µM | 
58 | CC1Cc2ccccc2N1C(=O)COC(=O)c1ccc(Br)o1 (configuration not stated) | 4.80 | > 100 µM | 
59 | O=C(Nc1nnc(-c2ccc(Cl)cc2)o1)C1=COCCO1 | 5.19 | 11.4 µM | > 40 µM
60 | O=C(OC(c1ccccc1)c1nccc2ccccc12)c1cc([N+](=O)[O-])cc([N+](=O)[O-])c1 (configuration not stated) | 5.67 | 4.48 µM | > 40 µM
61 | O=C(CNCc1ccco1)Nc1ccc(Oc2ccccc2)cc1 |  | > 100 µM | > 40 µM
62 | CCOC(=O)c1cnc2ccc(OCC)cc2c1NCc1ccccc1 | 4.80 | 22.2 µM | > 40 µM
63 | O=C(Nc1cccnc1)c1c(O)c2cccc3c2n(c1=O)CC3 | 5.73 | 2.08 µM | 

Row | Structure (SMILES) | pIC50 | IC90 | CC50
64 | Cc1cc(C2N=C(N)Nc3nc4ccccc4n32)c(C)n1-c1ccccc1Cl (configuration not stated) | 5.12 | 12.2 µM | 
65 | COc1ccc(C(=O)Nc2cc(OC)c(NC(=O)c3ccco3)cc2OC)cc1 | 5.54 | 9.59 µM | 
66 | CCCCOC(=O)c1ccc(NC(=O)C(=O)NCc2cccnc2)cc1 | 4.66 | > 100 µM | 
67 | CCOC(=O)C(C)Sc1nnc(NC(=O)c2ccc(C)c([N+](=O)[O-])c2)s1 (configuration not stated) | 5.17 | 12.1 µM | 
68 | O=C(COC(=O)c1ccc(-c2ccc([N+](=O)[O-])cc2)o1)NC(=O)NC12CC3CC(CC(C3)C1)C2 | 4.99 | > 100 µM | 
69 | COC(=O)CSc1nc(N)c2c3c(sc2n1)CCCC3 | 5.60 | 4.12 µM | 
70 | COc1ccc2[nH]c(=O)c(CN(C(=O)NC3CCCCC3)C3CCCCC3)cc2c1 |  | > 100 µM | > 40 µM
71 | Nc1ccc2c(c1)C(=O)C(=O)c1ccccc1-2 | 6.40 | 13.5 µM | 3.16 µM
72 | COc1ccc(NCC(=O)Nc2ccccc2C#N)cc1Cl | 4.01 | > 100 µM | 
73 | Cc1nn2c(NCCCn3ccnc3)cc(C(C)C)nc2c1-c1ccccc1 | 5.12 | 11.9 µM | 26.4 µM
74 | NC1CCN(c2c(F)cc3c(=O)c(C(=O)O)cn(C4CC4)c3c2Cl)C1 (configuration not stated) | > 6.41 | < 0.391 µM | 
75 | COc1ccc(NCc2nc3ccccc3n2CCOc2ccc(C)cc2)cc1 | 4.75 | 26.2 µM | 26.2 µM
76 | O=C(Nc1nnc(-c2ccccc2)o1)c1cc(Cl)sc1Cl | 5.62 | > 100 µM | > 40 µM
77 | CCCCOC(=O)c1ccc(N=Nc2c(C)c(C#N)c(O)[nH]c2=O)cc1 | > 6.71 | > 100 µM | 
78 | O=C(CSc1nc2ccccc2o1)NCC(=O)c1ccccc1 | 5.08 | 25.9 µM | 
79 | Nc1[nH]ncc1-c1ccc(Cl)cc1 | 4.66 | > 100 µM | 
80 | CCN(CCCCN1C(=O)c2ccccc2C1=O)c1ccc2c(c1)C(=O)N(C)C2=O | 4.92 | > 100 µM | 
81 | CC(=O)n1cc(N(C(=O)CCl)c2ccc([N+](=O)[O-])cc2)c2ccccc21 | 4.85 | 30.3 µM | 14.7 µM
82 | Cc1cc(C)nc(-n2nc(C)cc2Nc2ccccc2)n1 | 5.49 | 13.6 µM | > 40 µM
